Patent US11999971B2, “Stem cell derived islet differentiation” (Vertex Pharmaceuticals Incorporated, priority 2018, dated 2024)

Key:
Type in all cases: cell-based, human
[1] = test system: Pdx1 expressing pancreatic progenitor cells (Stage 4 differentiation); experiment: PKC inhibitor in modified stage 4 medium during S4d5-S4d6; cell composition at end of Stage 5; settings: for change in percentage of NKX6.1+/ISL1+ β cells at the end of Stage 5: FIG. 33A; for change in percentage of NKX6.1+/ISL1− SC-EC cells at the end of Stage 5: FIG. 33B
[2] = test system: Pdx1 expressing pancreatic progenitor cells (Stage 4/Stage 5 differentiation); experiment: TNKS/Wnt inhibitor in Stage 4 and/or Stage 5 medium; cell composition at end of Stage 5
From the text: (§1) In certain embodiments described herein, induced pluripotent stem cells are differentiated into SC-Di cells or precursors thereof in vitro. An exemplary differentiation protocol is outlined in FIG. 39. Endocrine progenitor cells produced by Stage 5 can comprise a mixture of cell types. For example, the composition can include NKX6.1+/ISL1+β cells, NKX6.1−/ISL1+α cells, NKX6.1−/ISL1− double negative cells, and enterochromaffin (EC) cells (FIG. 18B and FIG. 18C). For example, FIG. 18B and FIG. 18C show a Stage 5 process intermediate cell composition that comprises about 25% NKX6.1+/ISL1+β cells, about 14.5% NKX6.1−/ISL1+α cells, about 42.4% NKX6.1−/ISL1− double negative cells, and about 18.0% enterochromaffin (EC) cells. For certain applications described herein, such as the production of SC-islets, both NKX6.1−/ISL1− double negative (DN)SC-cells and SC-enterochromaffin (EC) cells are off target cell populations. To improve the Stage 5 cellular composition (e.g., increased percentage of NKX6.1+/ISL1+ SC-β cells and NKX6.1−/ISL1+ SC-α cells; decreased percentage of NKX6.1−/ISL1− SC-DN cells and SC-EC cells), modifications to the Stage 4 and/or Stage 5 medium were evaluated (FIG. 19).
As shown in FIGS. 20A-20B and FIGS. 21A-21B, TNKS/Wnt inhibition during Stage 4 increased the percentage of NKX6.1+/ISL1+β cells (FIG. 21A; FIGS. 20A-20B) and decreased the percentage of NKX6.1−/ISL1− double negative cells (FIG. 21B; FIGS. 20A-20B) at the end of stage 5. Multiple TNKS/Wnt inhibitors that increase the percentage of NKX6.1+/ISL1+β cells at the end of Stage 5 at least two-fold over the control were identified (FIG. 28).
FIGS. 30A-30B show TNKS inhibition increases the percentage of NKX6.1+/ISL1+SC-β cells and decreases the percentage of NKX6.1−/ISL1− SC-DN cells at the end of Stage 5 when TNK inhibitor is used through several times points through Stage 4 or Stage 4 through Stage 5, including S4d3-S4d6, S4d3-S5d2, S4d5-S4d6, and S4d5-S5d2.

[3] = test system: Pdx1 expressing pancreatic progenitor cells (Stage 4/Stage 5 differentiation); experiment: PKC activator in Stage 4 and/or Stage 5 medium; FACS analysis of cell composition at end of Stage 5
From the text: as §1
To further improve the Stage 5 cellular composition (e.g., increased percentage of NKX6.1+/ISL1+β cells and NKX6.1−/ISL1+α cells; decreased percentage of NKX6.1−/ISL1− double negative cells and enterochromaffin (EC) cells), further modifications to the Stage 4 and/or Stage 5 medium were evaluated (FIG. 19).
As shown in FIGS. 25A-25B and FIG. 27, PKC activation (0.5 μM phorbol 12,13-dibutyrate) during Stage 4 decreases the percentage of VMAT1+ SC-EC cells at the end of Stage 5 from 24.8% to 4.9%.
FIGS. 35A-35B show PKC activation increases the percentage of NKX6.1−/ISL1+ SC-α cells and decreases the percentage of NKX6.1+/ISL1− SC-EC cells at the end of Stage 5 when a PKC activator is used through several times points through Stage 4 or Stage 4 through Stage 5, including S4d3-S4d6, S4d3-S5d2, S4d5-S4d6, and S4d5-S5d2.

Cn1cc(C2=C(c3cn(CCCSC(=N)N)c4ccccc34)C(=O)NC2=O)c2ccccc21 [Ro 31-8220]
change in percentage of NKX6.1+/ISL1+ β cells at the end of Stage 5 [1]: decrease
change in percentage of NKX6.1+/ISL1− SC-EC cells at the end of Stage 5 [1]: decrease

CN1CCN(c2nc(C3=C(c4c[nH]c5ccccc45)C(=O)NC3=O)c3ccccc3n2)CC1 [Sotrastaurin]
change in percentage of NKX6.1+/ISL1+ β cells at the end of Stage 5 [1]: decrease
change in percentage of NKX6.1+/ISL1− SC-EC cells at the end of Stage 5 [1]: decrease

Cc1cc(N2C[C@@H](C)N[C@@H](C)C2)ncc1-c1ccc(-c2nc3c(ccn3C)c(=O)[nH]2)cc1 [AZ6102]
change in percentage of NKX6.1+/ISL1+ SC-β cells at the end of stage 5 vs control ([2]; 0.5 μM during S4d5-S4d6, FACS, FIG. 30A): increased
change in percentage of NKX6.1+/ISL1+ SC-β cells at the end of stage 5 vs control ([2]; 0.5 μM during Stage 4 or Stage 5, FIG. 31A): increased
change in percentage of NKX6.1−/ISL1− SC-DN cells at the end of stage 5 vs control ([2]; 0.5 μM during Stage 4 or Stage 5, FIG. 31B): decreased

CCCC(=O)O[C@@H]1[C@@H](C)[C@@]2(O)[C@@H](C=C(CO)C[C@]3(O)C(=O)C(C)=C[C@@H]23)[C@@H]2C(C)(C)[C@]12OC(=O)CCC [phorbol 12,13-dibutyrate, Phorbol 12,13-dibutyrate]
percentage of NKX6.1+/ISL1− SC-EC cells at the end of Stage 5 ([3]; 0.5 μM during S4d5-S5d2, control 32.1%): 14.7%
percentage of NKX6.1−/ISL1+ SC-α cells at the end of Stage 5 ([3]; 0.5 μM during S4d5-S5d2, control printed 1 1.3%): 38.2%
percentage of glucagon+ SC-α cells at the end of Stage 5 ([3]; 0.5 μM during Stage 4, control 5.7%): 23.7%
percentage of ARX+ SC-α cells at the end of Stage 5 ([3]; 0.5 μM during Stage 4, control 10.4%): 38.4%
percentage of VMAT1+ SC-EC cells at the end of Stage 5 ([3]; 0.5 μM during Stage 4, control 24.8%): 4.9%
percentage of CDX2+ SC-EC cells at the end of Stage 5 ([3]; 0.5 μM during Stage 4, control 66.4%): 21.5%
change in percentage of glucagon positive SC-α cells at the end of stage 5 vs control ([3]; 0.5 μM during stage 4, FACS, FIG. 23): increased
change in percentage of ARX positive SC-α cells at the end of stage 5 vs control ([3]; 0.5 μM during stage 4, FACS, FIG. 24): increased
change in percentage of VMAT1 positive SC-EC cells at the end of stage 5 vs control ([3]; 0.5 μM during stage 4, FACS, FIG. 25): decreased
change in percentage of CDX2 positive SC-EC cells at the end of stage 5 vs control ([3]; 0.5 μM during stage 4, FACS, FIG. 26): decreased

COc1ccc2c(c1)c(C1=C(c3c[nH]c4ccccc34)C(=O)NC1=O)cn2CCCN(C)C [Go 6983]
change in percentage of NKX6.1+/ISL1+ β cells at the end of Stage 5 [1]: decrease
change in percentage of NKX6.1+/ISL1− SC-EC cells at the end of Stage 5 [1]: decrease
